Experimental data as given in PMC11129182, “Development of Inhibitors, Probes, and PROTAC Provides a Complete Toolbox to Study PARK7 in the Living Cell” (Journal of Medicinal Chemistry, 2024).

Biological target: T1, PARK7 (Homo sapiens, UniProt Q99497)
T1 sequence (Q99497 1-189): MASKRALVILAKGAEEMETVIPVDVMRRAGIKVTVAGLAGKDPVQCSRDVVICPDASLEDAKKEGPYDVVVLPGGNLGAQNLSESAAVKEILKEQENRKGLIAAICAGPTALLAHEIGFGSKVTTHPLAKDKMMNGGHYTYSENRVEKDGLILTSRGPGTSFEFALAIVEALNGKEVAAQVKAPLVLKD
Assay: High-throughput screen of the crude compound library, PARK7 fluorescence polarization (FP) assay with FP reagent JYQ-107
Type: biochemical
Details: 1.25 µM, crude compound library, FP reagent JYQ-107; read-out: HTS FP assay %Inhibition (1.25 µM)

Structure (SMILES) | inhibition at 1.25 µM [%]
N#CN1CC[C@@H](C(=O)Nc2nc3c(s2)CN(C(=O)c2ccc(-c4ncon4)cc2)CC3)C1 [compound 379] | 75.2
N#CN1CC[C@@H](C(=O)Nc2nc3c(s2)CN(C(=O)CC2C(=O)Nc4ccccc42)CC3)C1 (stereo partly shown) [compound 465] | 81.8
N#CN1CC[C@@H](C(=O)Nc2nc3c(s2)CN(C(=O)c2ccc(CNC(=O)OCC4c5ccccc5-c5ccccc54)cc2)CC3)C1 [compound 448] | 63.9
N#CN1CC[C@@H](C(=O)Nc2nc3c(s2)CN(C(=O)c2cc(S(=O)(=O)Nc4cccc(F)c4)ccc2F)CC3)C1 [compound 354] | 72.5
CNS(=O)(=O)c1ccc(-c2ccccc2OC(F)(F)F)c(C(=O)N2CCc3nc(NC(=O)[C@@H]4CCN(C#N)C4)sc3C2)c1 [compound 352] | 72
N#CN1CC[C@@H](C(=O)Nc2nc3c(s2)CN(C(=O)CCC2CCCCC2)CC3)C1 [compound 435] | 78.3
N#CN1CC[C@@H](C(=O)Nc2nc3c(s2)CN(C(=O)c2ccc(CBr)cc2)CC3)C1 [compound 414] | -19.6
CCCC(=O)N1CCc2nc(NC(=O)[C@@H]3CCN(C#N)C3)sc2C1 [compound 394] | 70.5
N#CN1CC[C@@H](C(=O)Nc2nc3c(s2)CN(C(=O)c2ccc(N4CCOCC4)cc2)CC3)C1 [compound 473] | 72.4
N#CN1CC[C@@H](C(=O)Nc2nc3c(s2)CN(C(=O)c2nc(N4CCOCC4)ncc2Cl)CC3)C1 [compound 376] | 70.8
N#CN1CC[C@@H](C(=O)Nc2nc3c(s2)CN(C(=O)c2cccc4c2-c2ccccc2C4)CC3)C1 [compound 425] | 84
N#CN1CC[C@@H](C(=O)Nc2nc3c(s2)CN(C(=O)C2CCCN(c4ncccc4C(F)(F)F)C2)CC3)C1 (stereo partly shown) [compound 358] | 77.6
N#CN1CC[C@@H](C(=O)Nc2nc3c(s2)CN(C(=O)Cc2ccc(OCc4ccccn4)cc2)CC3)C1 [compound 353] | 73.2
N#CN1CC[C@@H](C(=O)Nc2nc3c(s2)CN(C(=O)Cc2ccncc2)CC3)C1 [compound 404] | 58.2
N#CN1CC[C@@H](C(=O)Nc2nc3c(s2)CN(C(=O)c2c(F)c(F)c(O)c(F)c2F)CC3)C1 [compound 442] | 51.4
CC(=O)CCC(=O)N1CCc2nc(NC(=O)[C@@H]3CCN(C#N)C3)sc2C1 [compound 443] | 72.8
N#CN1CC[C@@H](C(=O)Nc2nc3c(s2)CN(C(=O)c2ccccc2C=O)CC3)C1 [compound 432] | 57.9
CCCN(CCC)S(=O)(=O)c1ccc(C(=O)N2CCc3nc(NC(=O)[C@@H]4CCN(C#N)C4)sc3C2)cc1 [compound 428] | 85.1
COC1CC(C(=O)N2CCc3nc(NC(=O)[C@@H]4CCN(C#N)C4)sc3C2)N(C(=O)OCc2ccccc2)C1 (stereo partly shown) [compound 382] | 75.9
CN(C)c1ccc(C(=O)N2CCc3nc(NC(=O)[C@@H]4CCN(C#N)C4)sc3C2)cc1 [compound 449] | 82.9
N#CN1CC[C@@H](C(=O)Nc2nc3c(s2)CN(C(=O)CCc2ccc(O)cc2)CC3)C1 [compound 438] | 74.4

Same assay, conditions: 1.25 µM, crude compound library; read-out: HTS FP assay %Inhibition (1.25 µM)

Structure (SMILES) | inhibition at 1.25 µM [%]
N#CN1CC[C@@H](C(=O)Nc2nc3c(s2)CN(C(=O)c2ccnn2C2CCOCC2)CC3)C1 [compound 132] | 73.2
N#CN1CC[C@@H](C(=O)Nc2nc3c(s2)CN(C(=O)C2CCN(C(=O)c4ccccn4)CC2)CC3)C1 [compound 158] | 69.2
CC1CC1C(=O)N1CCCCC1C(=O)N1CCc2nc(NC(=O)[C@@H]3CCN(C#N)C3)sc2C1 (stereo partly shown) [compound 61] | 70.5
N#CN1CC[C@@H](C(=O)Nc2nc3c(s2)CN(C(=O)c2ccc(Cn4cccn4)s2)CC3)C1 [compound 272] | 83.3
N#CN1CC[C@@H](C(=O)Nc2nc3c(s2)CN(C(=O)C2CCCN2C(=O)c2ccncc2)CC3)C1 (stereo partly shown) [compound 206] | 50.6
N#CN1CC[C@@H](C(=O)Nc2nc3c(s2)CN(C(=O)C2CN(C(=O)OCc4ccccc4)CCO2)CC3)C1 (stereo partly shown) [compound 216] | 76.7
N#CN1CC[C@@H](C(=O)Nc2nc3c(s2)CN(C(=O)c2ccc(OCn4cc(Cl)cn4)cc2)CC3)C1 [compound 147] | 82.4
CN(Cc1ccco1)c1ccccc1C(=O)N1CCc2nc(NC(=O)[C@@H]3CCN(C#N)C3)sc2C1 [compound 67] | 72.7
Cn1ncc(C2CC2)c1C(=O)N1CCc2nc(NC(=O)[C@@H]3CCN(C#N)C3)sc2C1 [compound 82] | 71.4
CN1CCN(C(=O)[C@@H]2[C@@H](C(=O)N3CCc4nc(NC(=O)[C@@H]5CCN(C#N)C5)sc4C3)C2(C)C)CC1 [compound 189] | 66.8
N#CN1CC[C@@H](C(=O)Nc2nc3c(s2)CN(C(=O)c2occc2CN2CCOCC2)CC3)C1 [compound 122] | 70.9
N#CN1CC[C@@H](C(=O)Nc2nc3c(s2)CN(C(=O)C2CC=CCC2C(=O)N2CCOCC2)CC3)C1 (stereo partly shown) [compound 276] | 74.3
N#CN1CC[C@@H](C(=O)Nc2nc3c(s2)CN(C(=O)CC2=NN(c4cccc(Cl)c4)C(=O)C2)CC3)C1 [compound 262] | 71.9
N#CN1CC[C@@H](C(=O)Nc2nc3c(s2)CN(C(=O)C2(c4ccccc4Cl)CCOCC2)CC3)C1 [compound 94] | 65.7
N#CN1CC[C@@H](C(=O)Nc2nc3c(s2)CN(C(=O)c2cc(S(N)(=O)=O)ccc2-c2cccc(C(F)(F)F)c2)CC3)C1 [compound 19] | 69
N#CN1CC[C@@H](C(=O)Nc2nc3c(s2)CN(C(=O)c2cccc(OCCOc4ccccc4Cl)n2)CC3)C1 [compound 225] | 86.9
Cc1ccc(CN2C(=O)CCC2C(=O)N2CCc3nc(NC(=O)[C@@H]4CCN(C#N)C4)sc3C2)cc1 (stereo partly shown) [compound 254] | 53.9
N#CN1CC[C@@H](C(=O)Nc2nc3c(s2)CN(C(=O)c2ccc(-c4ccncc4)[nH]c2=O)CC3)C1 [compound 330] | 64.2
N#CN1CC[C@@H](C(=O)Nc2nc3c(s2)CN(C(=O)Cc2ccc(S(=O)(=O)N4CCOCC4)s2)CC3)C1 [compound 65] | 87
CC1CCCC(N2CC(C(=O)N3CCc4nc(NC(=O)[C@@H]5CCN(C#N)C5)sc4C3)CC2=O)C1C (stereo partly shown) [compound 153] | 64.4
COc1ccc(C(=O)N2CCc3nc(NC(=O)[C@@H]4CCN(C#N)C4)sc3C2)cc1S(=O)(=O)NCc1ccccn1 [compound 194] | 80.2
Cc1nc(-c2ncccn2)sc1C(=O)N1CCc2nc(NC(=O)[C@@H]3CCN(C#N)C3)sc2C1 [compound 75] | 72

Structure (SMILES) | inhibition at 1.25 µM [%]
Cn1nc(-c2cccnc2)cc1C(=O)N1CCc2nc(NC(=O)[C@@H]3CCN(C#N)C3)sc2C1 [compound 184] | 86.9
Cc1nc(-c2ccco2)ccc1C(=O)N1CCc2nc(NC(=O)[C@@H]3CCN(C#N)C3)sc2C1 [compound 248] | 84.8
Cc1onc(C(=O)N2CCc3nc(NC(=O)[C@@H]4CCN(C#N)C4)sc3C2)c1CN1CCN(C)CC1 [compound 331] | 57.9
N#CN1CC[C@@H](C(=O)Nc2nc3c(s2)CN(C(=O)Cc2csc(-c4nnc[nH]4)n2)CC3)C1 [compound 202] | 81
Cc1oc(-c2cccs2)nc1C(=O)N1CCc2nc(NC(=O)[C@@H]3CCN(C#N)C3)sc2C1 [compound 263] | 78.3
N#CN1CC[C@@H](C(=O)Nc2nc3c(s2)CN(C(=O)c2nc(C4CC4)ncc2Br)CC3)C1 [compound 255] | 74
N#CN1CC[C@@H](C(=O)Nc2nc3c(s2)CN(C(=O)c2ccc(N4NC(=O)CCC4=O)cc2)CC3)C1 [compound 125] | 85.7
N#CN1CC[C@@H](C(=O)Nc2nc3c(s2)CN(C(=O)c2cn(CC4CCOC4)nn2)CC3)C1 (stereo partly shown) [compound 234] | 82.7
CC1CCN(c2ncc(C(=O)N3CCc4nc(NC(=O)[C@@H]5CCN(C#N)C5)sc4C3)s2)CC1 [compound 88] | 77.3
N#CN1CC[C@@H](C(=O)Nc2nc3c(s2)CN(C(=O)c2sc(N4CCCC4)nc2Cl)CC3)C1 [compound 227] | 74
N#CN1CC[C@@H](C(=O)Nc2nc3c(s2)CN(C(=O)c2ccn(-c4ncc(C(F)(F)F)cc4Cl)n2)CC3)C1 [compound 51] | 85.7
N#CN1CC[C@@H](C(=O)Nc2nc3c(s2)CN(C(=O)c2cnoc2-c2ccccc2C(F)(F)F)CC3)C1 [compound 185] | 77.5
N#CN1CC[C@@H](C(=O)Nc2nc3c(s2)CN(C(=O)CC2(n4cccc4)CCCCC2)CC3)C1 [compound 145] | 83.7
N#CN1CC[C@@H](C(=O)Nc2nc3c(s2)CN(C(=O)c2csc(C4CCCCC4)n2)CC3)C1 [compound 270] | 87.2
Cc1nn(-c2cccnc2)nc1C(=O)N1CCc2nc(NC(=O)[C@@H]3CCN(C#N)C3)sc2C1 [compound 230] | 62.8
CN1C(=O)CCC(C(=O)N2CCc3nc(NC(=O)[C@@H]4CCN(C#N)C4)sc3C2)C1c1cccs1 (stereo partly shown) [compound 256] | 61.4
N#CN1CC[C@@H](C(=O)Nc2nc3c(s2)CN(C(=O)C2CCN(c4ccc(=O)[nH]n4)CC2)CC3)C1 [compound 89] | 68.2
CC(C(=O)N1CCc2nc(NC(=O)[C@@H]3CCN(C#N)C3)sc2C1)n1ccc(C2CC2)n1 (stereo partly shown) [compound 239] | 67.1
N#CN1CC[C@@H](C(=O)Nc2nc3c(s2)CN(C(=O)c2cc(OCc4ccccc4)ccn2)CC3)C1 [compound 66] | 70.6
Cc1ccccc1COc1cccc(CC(=O)N2CCc3nc(NC(=O)[C@@H]4CCN(C#N)C4)sc3C2)c1 [compound 204] | 73.6
N#CN1CC[C@@H](C(=O)Nc2nc3c(s2)CN(C(=O)c2c[nH]nc2-c2ccncc2)CC3)C1 [compound 326] | 69.7
